This passage reports IC50, efflux ratio and Papp A→B results from patent US20250066329A1, “PIPERIDINYLPYRIDINYLCARBONITRILE DERIVATIVES AS INHIBITORS OF GLUTAMINYL-PEPTIDE CYCLOTRANSFERASE AND GLUTAMINYL-PEPTIDE CYCLOTRANSFERASE LIKE PROTEIN” (Boehringer Ingelheim International GmbH, priority 2023, published 2025).

The target in one data set is T1, QPCTL (Homo sapiens, UniProt Q9NXS2).
T1 construct: made in house
The data set is described as follows: Assay A: biochemical QPCTL activity assay (MALDI-TOF MS, CD47 peptide substrate). The conditions noted are these: 0.5 nM enzyme, 10 μM CD47 peptide substrate; read-out: Inhibition of QPCTL: IC50. How it is done:
(§1) QPCT or QPCTL dependent conversion of N-terminal glutamine to pyroglutamate of CD47 was monitored via MALDI-TOF MS. Test compounds were dissolved in 100% DMSO and serially diluted into clear 1,536-well microtiter plates. Enzymatic reactions were set up in assay buffer containing 20 mM Tris pH 7.5, 0.1 mM TCEP, 0.01% BSA, and 0.001% Tween20. […] The plates were incubated for 10 min in a humidified incubator at 24° C. Subsequently, 2.5 μL of CD47 peptide substrate surrogate (^19[…]^33) was added to each well (final concentration: 10 μM for QPCTL/20 μM for QPCT). The plates were mixed for 30 sec at 1,000 rpm and subsequently incubated for 40 min in a humidified incubator at 24° C. […] The plates were sealed with an adhesive foil, mixed for 30 s at 1,000 rpm and stored at room temperature until preparation of the MALDI target plates. […] QPCT or QPCTL activity was monitored by calculating the ratio between product and internal standard signals followed by normalization to high (100% activity) and low (0% activity) controls. Determination of compound potencies was obtained by fitting the dose-response data to a four-parameter logistical equation.

Another data set has as its target T2, QPCT (Homo sapiens, UniProt Q16769).
T2 construct: purchased Origine (OriGene) TP700028
Put plainly: Assay A: biochemical QPCT activity assay (MALDI-TOF MS, CD47 peptide substrate). As to conditions: 0.5 nM enzyme, 20 μM CD47 peptide substrate; read-out: Inhibition of QPCT: IC50. How it is done: as §1

In data set [1] the test system is SIRPα signalling induced by Raji cells. Put plainly: Assay B: SIRPα signalling assay using Raji cells. Type of data set: cell-based. The conditions noted are these: Homo sapiens; Raji cells, 48 h compound incubation, PathHunter SIRPαV1 reporter cells; read-out: Inhibition of SIRPα signalling induced by Raji cells: IC50. How it is done:
(§2) Two cell types are independently used: the Raji cell line (lymphoblast-like human cell line derived from B lymphocytes from a Burkitt's lymphoma patient in 1963) and A549 cells (adenocarcinomic human alveolar basal epithelial cells).
(§3) Test compounds were dissolved in 100% DMSO and serially diluted into a white 384-well microtiter cell culture plate (PerkinElmer #60076780 in case of Raji assay; PDL-coated plates Greiner #781945 in case of A549 assay). 5000 Raji cells (ATCC #CC86) or 5000 A549 cells (ATCC #CCL-185) in Assay Complete Cell Plating reagent 30 (DiscoverX 93-0563R30B) were added per well. The assay plate was incubated for 48 h at 37° C., 95% humidity and 5% CO2. 15000 reporter cells (Jurkat PathHunter SIRPαV1, DiscoverX #93-1135C19) were added to each well, and the plate was incubated for 5 h at 37° C., 95% humidity and 5% CO2. Bioassay reagent 1 of the PathHunter Bioassay detection kit (DiscoverX 93-0001) was added to each well of the plate using a multichannel pipette followed by a 15 min incubation at room temperature. Afterwards bioassay reagent 2 was added followed by 60 min incubation at room temperature (incubation in the dark). The analysis of the data was performed using the luminescence signal generated by beta-galactosidase in the PathHunter reporter cell line. The luminescence measurement was done using a Pherastar Multi-Mode Reader. Dose-response curves & IC50 data were calculated with 4-parameter sigmoidal dose response formula.

Data set [2] has as its system SIRPα signalling induced by A549 cells. The data set is described as follows: Assay B: SIRPα signalling assay using A549 cells. As to conditions: Homo sapiens; A549 cells, 48 h compound incubation, PathHunter SIRPαV1 reporter cells; read-out: Inhibition of SIRPα signalling induced by A549 cells: IC50. Type of data set: cell-based. How it is done:
as §2, §3

Data set [3] can be described thus: Assay C: permeability in CACO-2 cells. The format is in vitro ADME. The conditions noted are these: human, pH 7.2; for efflux ratio at 2 h: Caco-2, permeability B-A/permeability A-B; for Papp A→B at 2 h: Caco-2, apical to basolateral. How it is done: Caco-2 cells (1-2×10^5 cells/1 cm^2 area) are seeded on filter inserts (Costar transwell polycarbonate or PET filters, 0.4 µm pore size) and cultured (DMEM) for 10 to 25 days. Compounds are dissolved in appropriate solvent (like DMSO, 1-20 mM stock solutions). […] The transport solution (TL) is applied to the apical or basolateral donor side for measuring A-B or B-A permeability (3 filter replicates), respectively. Samples are collected at the start and end of experiment from the donor and at various time intervals for up to 2 hours also from the receiver side for concentration measurement by HPLC-MS/MS or scintillation counting. Sampled receiver volumes are replaced with fresh receiver solution.
Efflux ratio (ER)=permeability B-A/permeability A-B
A general note: Passage across Caco-2 layers is used to estimate intestinal permeability.

A word on the IC50: it is the concentration that inhibits the measured activity by half. In general, efflux ratio refers to a quotient of directional permeabilities that is used to spot active efflux. As a reminder, the Papp A→B is how fast a substance crosses the layer from the apical side. Lower therefore signals poor permeation.

T2 sequence (Q16769 29-361): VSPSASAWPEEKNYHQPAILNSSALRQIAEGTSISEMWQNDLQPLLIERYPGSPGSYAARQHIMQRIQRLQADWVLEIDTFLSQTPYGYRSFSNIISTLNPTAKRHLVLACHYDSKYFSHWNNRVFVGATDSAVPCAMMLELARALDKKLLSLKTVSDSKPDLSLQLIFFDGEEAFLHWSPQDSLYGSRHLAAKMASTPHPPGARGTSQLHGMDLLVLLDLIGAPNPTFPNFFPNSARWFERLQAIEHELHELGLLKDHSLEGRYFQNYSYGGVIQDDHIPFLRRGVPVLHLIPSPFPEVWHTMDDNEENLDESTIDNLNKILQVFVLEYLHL
T1 sequence (Q9NXS2 whole entry): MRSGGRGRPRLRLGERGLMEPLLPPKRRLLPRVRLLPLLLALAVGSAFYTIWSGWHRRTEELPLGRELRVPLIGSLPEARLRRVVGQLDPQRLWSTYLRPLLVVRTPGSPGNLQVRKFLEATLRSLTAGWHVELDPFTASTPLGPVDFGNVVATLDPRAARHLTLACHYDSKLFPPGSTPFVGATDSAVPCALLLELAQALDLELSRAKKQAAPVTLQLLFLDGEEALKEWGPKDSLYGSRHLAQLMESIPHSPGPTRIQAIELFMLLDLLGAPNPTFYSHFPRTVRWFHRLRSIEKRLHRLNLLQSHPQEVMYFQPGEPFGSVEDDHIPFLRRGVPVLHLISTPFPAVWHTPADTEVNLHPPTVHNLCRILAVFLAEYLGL

`Cn1cnnc1[C@@H]1CCN(c2c(C#N)cc(C(F)(F)F)nc2-c2ccc(F)nc2)[C@@H](C2CC2)C1` [Example 1, 3-[(2R,4R)-2-cyclopropyl-4-(4-methyl-4H-1,2,4-triazol-3-yl)piperidin-1-yl]-6′-fluoro-6-(trifluoromethyl)-[2,3′-bipyridine]-4-carbonitrile]: the IC50 amounted to 0.001 µM on QPCTL, 0.002 µM at QPCT, 0.027 µM in data set [1] and 0.027 µM in data set [2]. Further, the efflux ratio at 2 h in data set [3] came out at 4.4. In addition, in data set [3], the Papp A→B at 2 h was 17 ×10⁻⁶ cm/s.

Regarding `C[C@@H]1C[C@](F)(c2nncn2C)CCN1c1c(C#N)cc(C(F)(F)F)nc1-c1cnc2nn(C(C)(C)C)cc2c1` [Example 16], the concentration for half-maximal inhibition (IC50) stood at 0.007 µM on QPCTL, 0.005 µM at QPCT, 0.124 µM in data set [1] and 0.074 µM in data set [2]. For the same compound, in data set [3], the efflux ratio at 2 h was determined as 7.1. This compound also came in with a Papp A→B at 2 h in data set [3] of 9.2 ×10⁻⁶ cm/s.
